Data published in patent US20230041692A1, “NOVEL PEPTIDE HORMONES” (THE UNIVERSITY OF SYDNEY, priority 2019, published 2023).

System: C57BL/6J male mice
Assay: Crossover peptide injection trial in mice (food intake and body weight)
Type: in vivo
Settings: intraperitoneal injection at 5pm, change measured 16 h after injection, C57BL/6J male mice at 14 weeks, compared to vehicle injection
Method: FIG. 6: Analysis of erusiolin producing cells, secretion in response to food and effects of erusiolin injection in mice. […] Staining is consistent with erusiolin positivity in rare enteroendocrine cell populations. […] Each line is one participant. […] Animals were randomised to the sequence of treatment days that were random in order, with washout days between injection treatment days. Peptides were injected at 5pm before the night phase and the change in body weight and food intake measured after 16 h. (n=14) ***P<0.001,*P<0.05. Erusiolin refers to the synthetic peptide of sequence APFLLEDPANQFLRL (SEQ ID NO: 2), DPP4-cleaved refers to the synthetic peptide of sequence FLLEDPANQFLRL (SEQ ID NO: 3).
In these experiments “erusiolin” refers to the synthetic peptide of sequence APFLLEDPANQFLRL (SEQ ID NO: 2), “DPP4-cleaved” refers to the synthetic peptide of sequence FLLEDPANQFLRL (SEQ ID NO: 3). These peptides were synthesised and purified as the TFA-salt by a commercial supplier (Genscript), which generated 10 mg of each peptide at >90% purity. TFA removal and formation of the HCL-peptide salt was performed by freeze-drying the peptide solution (in LC-grade H2O) for 16 h and resuspension in 500 uL of 10 mM HC1 in LC-grade H2O. This solution was then freeze-dried for 16 h. A total of three rounds of 10 mM HC1 resuspension and freeze-drying for 16 h were performed. After the final drying step, the peptides were resuspended in LC-grade H2O. The peptide solutions were analysed for TFA contamination and determination of the peptide concentration using FT-IR spectroscopy. No TFA contamination was observed and the final peptide concentrations were 5 mg/mL in LC-grade H2O. Peptides were diluted in vehicle (1 mg/ml mouse albumin in PBS) before injection.
C57BL/6J male mice at 14 weeks of age were treated with either vehicle, erusiolin, or the DPP4-cleaved peptide in a crossover trial study using intraperitoneal injection of the peptides. Each mouse was randomly allocated to a sequence of treatments. Each sequence had treatments in a random order. One treatment was performed per mouse per day and injections were at 5pm just before the night feeding period. Between each treatment day a washout day was included where no injection was performed to allow the previous days treatment to be degraded and minimise confounding effects. The food intake and body weight of each animal was measured just prior to injection and again 16 h after injection. This enable the calculation of the mass delta (change) for food intake and body mass. A repeated-measures one-way ANOVA was used to determine significance between the vehicle negative control treatment and the other treatments. Statistical analyses were performed using R (version 3.4.3) and processed data was plotted using Tableau (version 10.0.2). […]

APFLLEDPANQFLRL [erusiolin]
body weight: significant decrease
food intake: significant decrease

FLLEDPANQFLRL [DPP4-cleaved]
body weight: not significant or less significant
food intake: not significant or less significant
